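Results reflect a 48-hour exposure of cells in 96-well plates to compound at five concentrations. Abbreviation: GI50, concentration required for 50% inhibition of growth. TGI denotes the concentration required for complete inhibition of growth.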
Key:
Test in all cases: NCI tumour cell line growth inhibition, 48 h
HL-60(TB) leukemia = tested on: HL-60(TB) leukemia
MDA-MB-231 breast = tested on: MDA-MB-231 breast
OVCAR-3 ovarian = tested on: OVCAR-3 ovarian
HS 578T breast = tested on: HS 578T breast
LOX IMVI melanoma = tested on: LOX IMVI melanoma
HOP-62 NSCLC = tested on: HOP-62 NSCLC
CCRF-CEM leukemia = tested on: CCRF-CEM leukemia
A549 NSCLC = tested on: A549 NSCLC
RXF 393 renal = tested on: RXF 393 renal
OVCAR-4 ovarian = tested on: OVCAR-4 ovarian
HCC-2998 colon = tested on: HCC-2998 colon
786-0 renal = tested on: 786-0 renal
MCF7 breast = tested on: MCF7 breast
SNB-75 CNS = tested on: SNB-75 CNS
SNB-19 CNS = tested on: SNB-19 CNS
ACHN renal = tested on: ACHN renal
RPMI-8226 leukemia = tested on: RPMI-8226 leukemia
K-562 leukemia = tested on: K-562 leukemia
MALME-3M melanoma = tested on: MALME-3M melanoma
HT29 colon = tested on: HT29 colon
SF-539 CNS = tested on: SF-539 CNS
UACC-257 melanoma = tested on: UACC-257 melanoma
OVCAR-8 ovarian = tested on: OVCAR-8 ovarian
MDA-MB-435 = tested on: MDA-MB-435
HOP-92 NSCLC = tested on: HOP-92 NSCLC
HCT-15 colon = tested on: HCT-15 colon
NCI/ADR-RES ovarian = tested on: NCI/ADR-RES ovarian
BT-549 breast = tested on: BT-549 breast
SN12C renal = tested on: SN12C renal
SR leukemia = tested on: SR leukemia
M14 melanoma = tested on: M14 melanoma
MOLT-4 leukemia = tested on: MOLT-4 leukemia
KM12 colon = tested on: KM12 colon
UO-31 renal = tested on: UO-31 renal
SK-MEL-28 melanoma = tested on: SK-MEL-28 melanoma
SF-268 CNS = tested on: SF-268 CNS
OVCAR-5 ovarian = tested on: OVCAR-5 ovarian
IGROV1 ovarian = tested on: IGROV1 ovarian
T-47D breast = tested on: T-47D breast
TK-10 renal = tested on: TK-10 renal
PC-3 prostate = tested on: PC-3 prostate
NCI-H460 lung = tested on: NCI-H460 lung
CAKI-1 renal = tested on: CAKI-1 renal
A498 renal = tested on: A498 renal
UACC-62 melanoma = tested on: UACC-62 melanoma
NCI-H226 lung = tested on: NCI-H226 lung
SF-295 CNS = tested on: SF-295 CNS
U251 CNS = tested on: U251 CNS
NCI-H522 lung = tested on: NCI-H522 lung
SK-MEL-5 melanoma = tested on: SK-MEL-5 melanoma
SW-620 colon = tested on: SW-620 colon
HCT-116 colon = tested on: HCT-116 colon
EKVX NSCLC = tested on: EKVX NSCLC
DU-145 prostate = tested on: DU-145 prostate
SK-MEL-2 melanoma = tested on: SK-MEL-2 melanoma
NCI-H23 lung = tested on: NCI-H23 lung
SK-OV-3 ovarian = tested on: SK-OV-3 ovarian
COLO 205 colon = tested on: COLO 205 colon

O=C1/C(=C/c2ccc(Cl)cc2)COc2ccc(O)cc21
GI50 (HL-60(TB) leukemia): 1360 nM | TGI (HL-60(TB) leukemia): 4.36 µM | GI50 (MDA-MB-231 breast): 2730 nM | TGI (MDA-MB-231 breast): 8.62 µM | GI50 (OVCAR-3 ovarian): 1840 nM | TGI (OVCAR-3 ovarian): 3.55 µM | GI50 (HS 578T breast): 3.22 µM | TGI (HS 578T breast): 18.1 µM | GI50 (LOX IMVI melanoma): 1740 nM | TGI (LOX IMVI melanoma): 3.18 µM | GI50 (HOP-62 NSCLC): 6.31 µM | TGI (HOP-62 NSCLC): 22.5 µM | GI50 (CCRF-CEM leukemia): 291 nM | TGI (CCRF-CEM leukemia): 1820 nM | GI50 (A549 NSCLC): 9.28 µM | TGI (A549 NSCLC): 30.7 µM | GI50 (RXF 393 renal): 1830 nM | TGI (RXF 393 renal): 3.45 µM | GI50 (OVCAR-4 ovarian): 3.83 µM | TGI (OVCAR-4 ovarian): 16.3 µM | GI50 (HCC-2998 colon): 1820 nM | TGI (HCC-2998 colon): 3.33 µM | GI50 (786-0 renal): 2040 nM | TGI (786-0 renal): 4.58 µM | GI50 (MCF7 breast): 1410 nM | TGI (MCF7 breast): 2960 nM | GI50 (SNB-75 CNS): 12.5 µM | TGI (SNB-75 CNS): 26.3 µM | GI50 (SNB-19 CNS): 2160 nM | TGI (SNB-19 CNS): 5.18 µM | GI50 (ACHN renal): 2390 nM | TGI (ACHN renal): 5.68 µM | GI50 (RPMI-8226 leukemia): 302 nM | TGI (RPMI-8226 leukemia): 905 nM | GI50 (K-562 leukemia): 2550 nM | TGI (K-562 leukemia): 25.8 µM | GI50 (MALME-3M melanoma): 2370 nM | TGI (MALME-3M melanoma): 6.08 µM | GI50 (HT29 colon): 2670 nM | TGI (HT29 colon): 6.61 µM | GI50 (SF-539 CNS): 1800 nM | TGI (SF-539 CNS): 3.56 µM | GI50 (UACC-257 melanoma): 3.16 µM | TGI (UACC-257 melanoma): 13 µM | GI50 (OVCAR-8 ovarian): 3000 nM | TGI (OVCAR-8 ovarian): 11 µM | GI50 (MDA-MB-435): 2770 nM | TGI (MDA-MB-435): 8.2 µM | GI50 (HOP-92 NSCLC): 8.84 µM | TGI (HOP-92 NSCLC): 37.6 µM | GI50 (HCT-15 colon): 1840 nM | TGI (HCT-15 colon): 4.04 µM | GI50 (NCI/ADR-RES ovarian): 2990 nM | TGI (NCI/ADR-RES ovarian): 9.13 µM | GI50 (BT-549 breast): 3.34 µM | TGI (BT-549 breast): 11.5 µM | GI50 (SN12C renal): 1860 nM | TGI (SN12C renal): 4.22 µM | GI50 (SR leukemia): 663 nM | TGI (SR leukemia): 5.3 µM | GI50 (M14 melanoma): 2330 nM | TGI (M14 melanoma): 6.31 µM | GI50 (MOLT-4 leukemia): 1840 nM | TGI (MOLT-4 leukemia): 8.23 µM | GI50 (KM12 colon): 2040 nM | TGI (KM12 colon): 4.46 µM | GI50 (UO-31 renal): 1610 nM | TGI (UO-31 renal): 3.99 µM | GI50 (SK-MEL-28 melanoma): 2070 nM | TGI (SK-MEL-28 melanoma): 4.33 µM | GI50 (SF-268 CNS): 3.29 µM | TGI (SF-268 CNS): 16.7 µM | GI50 (OVCAR-5 ovarian): 2440 nM | TGI (OVCAR-5 ovarian): 6.81 µM | GI50 (IGROV1 ovarian): 1670 nM | TGI (IGROV1 ovarian): 3.31 µM | GI50 (T-47D breast): 2220 nM | TGI (T-47D breast): 5.59 µM | GI50 (TK-10 renal): 3.33 µM | TGI (TK-10 renal): 13.4 µM | GI50 (PC-3 prostate): 2150 nM | TGI (PC-3 prostate): 5.14 µM | GI50 (NCI-H460 lung): 3.32 µM | TGI (NCI-H460 lung): 11.2 µM | GI50 (CAKI-1 renal): 2020 nM | TGI (CAKI-1 renal): 5.3 µM | GI50 (A498 renal): 13.9 µM | TGI (A498 renal): 27.7 µM | GI50 (UACC-62 melanoma): 2230 nM | TGI (UACC-62 melanoma): 5.46 µM | GI50 (NCI-H226 lung): 2680 nM | TGI (NCI-H226 lung): 7.61 µM | GI50 (SF-295 CNS): 14.5 µM | TGI (SF-295 CNS): 30 µM | GI50 (U251 CNS): 1520 nM | TGI (U251 CNS): 2840 nM | GI50 (NCI-H522 lung): 1720 nM | TGI (NCI-H522 lung): 3.5 µM | GI50 (SK-MEL-5 melanoma): 2320 nM | TGI (SK-MEL-5 melanoma): 5.37 µM | GI50 (SW-620 colon): 1870 nM | TGI (SW-620 colon): 4.26 µM | GI50 (HCT-116 colon): 1610 nM | TGI (HCT-116 colon): 3.08 µM | GI50 (EKVX NSCLC): 7.31 µM | TGI (EKVX NSCLC): 20.4 µM | GI50 (DU-145 prostate): 3.69 µM | TGI (DU-145 prostate): 13 µM | GI50 (SK-MEL-2 melanoma): 12.3 µM | TGI (SK-MEL-2 melanoma): 28.5 µM | GI50 (NCI-H23 lung): 2210 nM | TGI (NCI-H23 lung): 5.16 µM | GI50 (SK-OV-3 ovarian): 14 µM | TGI (SK-OV-3 ovarian): 44.5 µM | GI50 (COLO 205 colon): 1860 nM | TGI (COLO 205 colon): 4.63 µM
